Here are results for 45 compounds from publication PMC9775191, “A Subset Screen of the Compounds Australia Scaffold Library Identifies 7-Acylaminodibenzoxazepinones as Potent and Selective Hits for Anti-Giardia Drug Discovery” (Biomedicines, 2022).

Read-outs that look alike come from different tables or passages of the source.

The test system of experiment [1] is G. duodenalis BRIS/91/HEPU/1279. Put plainly: Primary Giardia screen at 10 µM (live-cell imaging, automated counting). It is filed as cell-based, Giardia duodenalis. The following applies: for inhibition at 10 µM: Giardia duodenalis, read-out: % Inhibition n=1 48h. The procedure, abridged:
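Singlicate, 10 μM final, 0.2% DMSO; sealed chambers, 3% O2/5% CO2/N2. Counts by live-cell imaging at 24 h and 48 h. % growth vs vehicle, media background subtracted; Z' per plate.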

Experiment [2] shares this test system. The experiment is described as follows: Giardia dose response assay, assemblage B. The format is cell-based, Giardia duodenalis. The following applies: 48 h, BRIS/91/HEPU/1279, 48 h, mean ± SD, read-out: IC50 Giardia (48 h). The procedure:
In these assays, compounds were serially diluted (8–12-point doubling dilutions in technical duplicate) in DMSO control media, with all test wells inoculated with parasites (1.5 × 10^4 parasites for BRIS/91/HEPU/1279 and BRIS/91/HEPU/1279m1, or 3 × 10^3 parasites for BRIS/87/HEPU/713). […] All plates were sealed in culture chambers and gassed with 3% O2, 5% CO2 in N2 and incubated at 37 °C for 48 h, with parasites imaged and enumerated at 24 and 48 h. Growth inhibition was calculated as a percentage relative to vehicle controls minus any background as described above and IC50 values were determined using log-linear interpolation as previously described. […] Statistical comparison of IC50 values when required were performed using Student’s t-test.

For experiment [3], the system named is Neonatal foreskin fibroblast (NFF) cells. Put plainly: Mammalian cell cytotoxicity assay (sulforhodamine B). It is filed as cell-based, human. The following applies: for IC50: Homo sapiens, NFF, mean ± SD, read-out: IC50 NFF; for Selectivity: NFF IC50 divided by G. duodenalis BRIS/91/HEPU/1279 IC50. The procedure:
The selectivity of compounds of interest was assessed against NFF cells. Assays were performed using sulforhodamine B and included media only, negative (no compound, no DMSO), and vehicle (DMSO) controls as previously described. A chloroquine control plate was included in each assay. […] Repurchased SN00797640 was tested in dose–response from 100 µM against NFF. Selectivity indices (SI) were calculated by dividing mammalian cell IC50 values by G. duodenalis BRIS/91/HEPU/1279 IC50 values.

A word on the inhibition: it is how much of the control response was suppressed. The IC50 is the point on the concentration scale where inhibition reaches its midpoint. On to `Cc1cc(-c2cc(C(=O)Nc3c(C)n(C)n(-c4ccccc4)c3=O)c3cnn(C(C)C)c3n2)c(C)o1` [SN00776477], for which the inhibition at 10 µM in experiment [1] (48 h, first singlicate assay) came to 0%. Further, the IC50 in experiment [2] (Giardia duodenalis) was over 10 µM.

On to `Cc1ccc(NC(=O)c2oc3ccccc3c2NC(=O)c2ccccc2)cc1` [SN00785329], for which, in experiment [2] (Giardia duodenalis), the IC50 is over 10 µM. Take `COc1ccc(C(=O)Nc2ccc3c(c2)Oc2ccccc2C(=O)N3C)c(OC)c1` [SN00797635]: the IC50 in experiment [2] (Giardia duodenalis) was over 10 µM. Still for that read-out and setting: then `Cc1ccc(N2CC(C(=O)Nc3ccc4c(c3)Oc3ccccc3C(=O)N4C)CC2=O)cc1C` (stereo not shown) [SN00797636], with over 10 µM. Same read-out and setting: then `COc1cc(OC)cc(C(=O)Nc2ccc3c(c2)Oc2ccccc2C(=O)N3C)c1` [SN00797637], with 5 µM. In the case of `CN1C(=O)c2ccccc2Oc2cc(NC(=O)CNC(=O)c3ccco3)ccc21` [SN00797638], in experiment [2] (Giardia duodenalis), the half-inhibitory concentration (IC50) is over 10 µM.

Regarding `Cc1cccc(C(=O)Nc2ccc3c(c2)Oc2ccccc2C(=O)N3C)c1` [SN00797639], the IC50 in experiment [2] (Giardia duodenalis) was over 10 µM.

As to `CN1C(=O)c2ccccc2Oc2cc(NC(=O)COc3ccc(Cl)cc3)ccc21` [SN00797641], in experiment [2] (Giardia duodenalis), the IC50 is over 10 µM. The same measure, in the same setting: with `CN1C(=O)c2ccccc2Oc2cc(NC(=O)C3(c4ccccc4)CC3)ccc21` [SN00797642] the figure was over 10 µM.

For the compound `CCc1ccc(C(=O)Nc2ccc3c(c2)Oc2ccccc2C(=O)N3C)cc1` [SN00797643], the IC50 in experiment [2] (Giardia duodenalis) was found to be 0.47 µM. For the same compound, in experiment [3], the IC50 is over 10 µM and the Selectivity is over 20.

In the case of `CN1C(=O)c2ccccc2Oc2cc(NC(=O)c3ccoc3)ccc21` [SN00797644], the concentration for half-maximal inhibition (IC50) in experiment [2] (Giardia duodenalis) is over 10 µM.

`CN1C(=O)c2ccccc2Oc2cc(NC(=O)c3cccc(Br)c3)ccc21` [SN00797645]: the IC50 in experiment [2] (Giardia duodenalis) was over 10 µM.

For `COc1ccc(C(=O)Nc2ccc3c(c2)Oc2ccccc2C(=O)N3C)cc1OC` [SN00797646], the IC50 in experiment [2] was over 8.6 µM; in experiment [2] (Giardia duodenalis), 8.6 µM.

With `CN1C(=O)c2ccccc2Oc2cc(NC(=O)c3ccccc3)ccc21` [SN00797647], the IC50 in experiment [2] (Giardia duodenalis) is over 10 µM. With `CN1C(=O)c2ccccc2Oc2cc(NC(=O)c3cc4ccccc4[nH]3)ccc21` [SN00797648], the 50% inhibitory concentration (IC50) in experiment [2] is 1.7 µM; in experiment [2] (Giardia duodenalis), 1.4 µM; in experiment [3], over 20 µM. Also, the Selectivity in experiment [3] was over 11.

In the case of `CN1C(=O)c2ccccc2Oc2cc(NC(=O)c3cc4cc(Cl)ccc4[nH]3)ccc21` [SN00797649], the IC50 in experiment [2] (Giardia duodenalis) was over 10 µM. Regarding `COc1ccc(C(=O)Nc2ccc3c(c2)Oc2ccccc2C(=O)N3C(C)C)c(OC)c1` [SN00797650], in experiment [2] (Giardia duodenalis), the IC50 is over 10 µM. With `CC(=O)Nc1cccc(C(=O)Nc2ccc3c(c2)Oc2ccccc2C(=O)N3C(C)C)c1C` [SN00797651], in experiment [2] (Giardia duodenalis), the half-maximal inhibitory concentration (IC50) is over 10 µM. With `CC(C)N1C(=O)c2ccccc2Oc2cc(NC(=O)CNC(=O)c3ccco3)ccc21` [SN00797652], in experiment [2] (Giardia duodenalis), the IC50 is over 10 µM. For `Cc1ccc(N2CC(C(=O)Nc3ccc4c(c3)Oc3ccccc3C(=O)N4C(C)C)CC2=O)cc1C` (stereo not shown) [SN00797653], the IC50 in experiment [2] (Giardia duodenalis) was over 10 µM.

On to `Cc1ccc(N2CC(C(=O)Nc3ccc4c(c3)Oc3ccccc3C(=O)N4C(C)C)CC2=O)cc1` (stereo not shown) [SN00797654], for which the IC50 in experiment [2] (Giardia duodenalis) was over 10 µM.

On to `CC(C)N1C(=O)c2ccccc2Oc2cc(NC(=O)C3CC(=O)N(c4ccccc4)C3)ccc21` (stereo not shown) [SN00797655], for which the IC50 in experiment [2] (Giardia duodenalis) is over 10 µM.

For `Cc1ccc(C(=O)NCC(=O)Nc2ccc3c(c2)Oc2ccccc2C(=O)N3C(C)C)cc1` [SN00797656], the IC50 in experiment [2] (Giardia duodenalis) was over 10 µM.

For the compound `CC(C)N1C(=O)c2ccccc2Oc2cc(NC(=O)c3cccs3)ccc21` [SN00797657], the IC50 in experiment [2] (Giardia duodenalis) is over 10 µM. On to `Cc1ccc(C(=O)Nc2ccc3c(c2)Oc2ccccc2C(=O)N3C(C)C)cc1` [SN00797658], for which the IC50 in experiment [2] (Giardia duodenalis) is over 10 µM.

As to `CC(C)N1C(=O)c2ccccc2Oc2cc(NC(=O)C3CCCCC3)ccc21` [SN00797659], in experiment [2] (Giardia duodenalis), the IC50 is over 10 µM.

As for `CCOc1ccc(C(=O)Nc2ccc3c(c2)N(C(C)C)C(=O)c2ccccc2O3)cc1` [SN00797660], the inhibition at 10 µM in experiment [1] (48 h, first singlicate assay) worked out at 33.8%. The IC50 in experiment [2] (Giardia duodenalis) was over 10 µM. `CC(C)N1C(=O)c2ccccc2Oc2cc(NC(=O)c3ccccc3)ccc21` [SN00797661]: the IC50 in experiment [2] (Giardia duodenalis) was over 10 µM. In the case of `COc1ccc(OCC(=O)Nc2ccc3c(c2)Oc2ccccc2C(=O)N3C(C)C)cc1` [SN00797662], the IC50 in experiment [2] (Giardia duodenalis) is over 10 µM. As for `Cc1ccc(C(=O)Nc2ccc3c(c2)Oc2ccccc2C(=O)N3C(C)C)cc1F` [SN00797663], the IC50 in experiment [2] (Giardia duodenalis) is over 10 µM. In the case of `CCn1ccc(C(=O)Nc2ccc3c(c2)Oc2ccccc2C(=O)N3C(C)C)n1` [SN00797664], in experiment [2] (Giardia duodenalis), the IC50 was over 10 µM. For `Cc1sc(C(=O)N2CCCC2)c2ncnc(NCc3cccc(Cl)c3)c12` [SN00803183], the “Average % Inhibition 24h” value in experiment [1] (24 h) stood at 15.6%. Moreover, in experiment [1] (24 h, first singlicate assay), the “% Inhibition n=1 24h” value is 29.7%. Also, the “% Inhibition n=2 24h” value in experiment [1] (24 h, re-assessment) stood at 1.5%. In addition, the “Average % Inhibition 48h” value in experiment [1] (48 h) was 27.6%. Besides, the “% Inhibition n=1 48h” value in experiment [1] (48 h, first singlicate assay) amounted to 47.9%. Besides, in experiment [1] (48 h, re-assessment), the “% Inhibition n=2 48h” value worked out at 7.3%. As to `Cc1sc(C(=O)N2CCCC2)c2ncnc(NCc3ccc(F)c(Cl)c3)c12` [SN00803192], the “% Inhibition n=1 48h” value in experiment [1] (48 h, first singlicate assay) was determined as 23.9%. Turning to `CCN1CCN(c2ccc3nnc(C(C)C)n3n2)CC1` [SN00803240], the “% Inhibition n=1 48h” value in experiment [1] (48 h, first singlicate assay) was 0.4%. In the case of `COc1ccccc1CNC(=O)CCN1C(=O)c2ccccc2C1=O` [SN00807762], the “% Inhibition n=1 48h” value in experiment [1] (48 h, first singlicate assay) worked out at 30.7%. Same read-out and setting: with `COc1ccc(N2C(=O)c3ccncc3C2=O)c(OC)c1` [SN00807767] the figure was 28.6%; with `CN(C)C(=O)N1CCN(Cc2nc3c(cnn3C)c(=O)[nH]2)CC1` [SN00807792], 0.0%; with `Cn1ncc2c(=O)[nH]c(CN3CCN(c4cnccn4)CC3)nc21` [SN00807797], 0.0%. As to `Cc1ccc(C(=O)N2CCCN(S(C)(=O)=O)CC2)c(=O)[nH]1` [SN00807837], the “% Inhibition n=1 48h” value in experiment [1] (48 h, first singlicate assay) turned out to be 19.8%. Consider `O=C(CSc1ccccc1)NCC1(N2CCCCC2)CCOCC1` [SN00807846], for which the “% Inhibition n=1 48h” value in experiment [1] (48 h, first singlicate assay) was determined as 1.8%. On the same count and under the same terms, with `Cc1nnc2n1CCN(C(=O)c1cnc(-c3ccccc3)s1)C2` [SN00807889] the figure was 22.7%. Regarding `Cc1ncc2c(n1)CN(C(C)c1nnc(-c3ccccc3)o1)CC2` (stereo not shown) [SN00807918], the “% Inhibition n=1 48h” value in experiment [1] (48 h, first singlicate assay) is on record as 13.7%. Turning to `CCc1ncc2c(n1)CN(Cc1csc(-c3ncccn3)n1)CC2` [SN00807940], the “% Inhibition n=1 48h” value in experiment [1] (48 h, first singlicate assay) came out at 9.1%. Consider `Cc1ncc2c(n1)CN(C(C)c1nc(-c3cccs3)no1)CC2` (stereo not shown) [SN00807951], for which the “% Inhibition n=1 48h” value in experiment [1] (48 h, first singlicate assay) stood at 13.5%. In the case of `Cc1oc(-c2ccco2)nc1CN1CCc2cnc(C(C)C)nc2C1` [SN00807954], in experiment [1] (48 h, first singlicate assay), the “% Inhibition n=1 48h” value is 0.1%.
